Earlier results, collected in patent US20160030582A1 (MAYNE PHARMA INTERNATIONAL PTY. LTD., priority 2012, published 2016).
Where two headings read alike, the source gives them in different places.

How the values were obtained:
[1] = tested on: typical infecting organisms for specific superficial and systemic mycoses; design: MIC90: unit not given here; conditions: for MIC RANGE: in µg/mL
[2] = Aspergillosis, A. flavus complex
[3] = Aspergillosis, A. fumigatus complex
[4] = Aspergillosis, A. nidulans complex
[5] = Aspergillosis, A. niger complex
[6] = Aspergillosis, A. terreus complex
[7] = tinea capitis, Microsporum sp. (audounti, canis, gypseum, ferrugineum et al.)
[8] = tinea capitis, Trichophyton sp. (tonsurans violaceum, soudanese, schoenleinii, mentagrophytes, verrucossum, et al.)
[9] = tinea corporis, Epidermophyton floccosum
[10] = tinea corporis, Microsporum sp. (canis, gypseum, et al.)
[11] = tinea corporis, Trichophyton sp. (rubrum, tonsurans interdigitale, mentagrophytes, concentricim, violaceum et al.)
[12] = tinea cruris, Epidermophyton floccosum
[13] = tinea cruris, Microsporum sp. (canis, et al.)
[14] = tinea cruris, Trichophyton sp. (rubrum, tonsurans interdigitale, mentagrophytes, et al.)
[15] = tinea manuum, Epidermophyton floccosum
[16] = tinea manuum, Trichophyton sp. (rubrum, interdigitale, mentagrophytes.)
[17] = tinea pedis, Epidermophyton floccosum
[18] = tinea pedis, Microsporum sp. (canis, gypseum, et al.)
[19] = tinea pedis, Trichophyton sp. (rubrum, tonsurans interdigitale, mentagrophytes, et al.)
[20] = tinea unguium, Epidermophyton floccosum
[21] = tinea unguium, Microsporum sp. (canis, et al.)
[22] = tinea unguium, Trichophyton sp. (rubrum, tonsurans interdigitale, mentagrophytes, et al.)

Structure (SMILES): CCC(C)n1ncn(-c2ccc(N3CCN(c4ccc(OCC5COC(Cn6cncn6)(c6ccc(Cl)cc6Cl)O5)cc4)CC3)cc2)c1=O (centres unmarked) [itraconazole]
- MIC90 [1]: MIC90 = 0.06
- MIC90 [1, 2]: MIC90 = 0.5
- MIC RANGE [1, 2]: 0.03-8
- MIC90 [1, 3]: MIC90 = 0.5
- MIC RANGE [1, 3]: 0.03-16
- MIC90 [1, 4]: MIC90 = 0.25
- MIC RANGE [1, 4]: 0.03-8
- MIC90 [1, 5]: MIC90 = 0.5
- MIC RANGE [1, 5]: 0.03-8
- MIC90 [1, 6]: MIC90 = 0.25
- MIC RANGE [1, 6]: 0.03-1
- MIC90 ([1]; Candidiasis, C. albicans): MIC90 = 0.125
- MIC RANGE ([1]; Candidiasis, C. albicans): 0.008-8
- MIC RANGE ([1]; Candidiasis, C. glabrata): 0.008-16
- MIC RANGE ([1]; Candidiasis, C. kruset): 0.008-8
- MIC RANGE ([1]; Candidiasis, C. tropicalis): 0.03-8
- MIC RANGE ([1]; Pityriasis versicolor, Malassezia sp. (florfur, globosa, obtuse, sympodialis etc).): 0.3-16
- MIC RANGE [1]: 0.03-8
- MIC90 [1, 7]: MIC90 = 0.25-0.5
- MIC RANGE [1, 7]: 0.01-4
- MIC90 [1, 8]: MIC90 = 0.25-0.5
- MIC RANGE [1, 8]: 0.01-8
- MIC90 [1, 9]: MIC90 = 0.125
- MIC RANGE [1, 9]: 0.01-8
- MIC90 [1, 10]: MIC90 = 0.25-0.5
- MIC RANGE [1, 10]: 0.01-4
- MIC90 [1, 11]: MIC90 = 0.25-0.5
- MIC RANGE [1, 11]: 0.01-8
- MIC90 [1, 12]: MIC90 = 0.125
- MIC RANGE [1, 12]: 0.01-8
- MIC90 [1, 13]: MIC90 = 0.25-0.5
- MIC RANGE [1, 13]: 0.01-4
- MIC90 [1, 14]: MIC90 = 0.25-0.5
- MIC RANGE [1, 14]: 0.01-8
- MIC90 [1, 15]: MIC90 = 0.125
- MIC RANGE [1, 15]: 0.01-8
- MIC90 [1, 16]: MIC90 = 0.25-0.5
- MIC RANGE [1, 16]: 0.01-8
- MIC90 [1, 17]: MIC90 = 0.125
- MIC RANGE [1, 17]: 0.01-8
- MIC90 [1, 18]: MIC90 = 0.25-0.5
- MIC RANGE [1, 18]: 0.01-4
- MIC90 [1, 19]: MIC90 = 0.25-0.5
- MIC RANGE [1, 19]: 0.01-8
- MIC90 [1, 20]: MIC90 = 0.125
- MIC RANGE [1, 20]: 0.01-8
- MIC90 [1, 21]: MIC90 = 0.25-0.5
- MIC RANGE [1, 21]: 0.01-4
- MIC90 [1, 22]: MIC90 = 0.25-0.5
- MIC RANGE [1, 22]: 0.01-8
- expected apparent plasma terminal elimination half-life (t½) (basis for sampling schedule of Example 12): 22 h
- reduction of Cmax and AUC in the fasting state (compared to administration after a light meal): 50-70%
- excreted unchanged in the feces (oral dose): 3-18%
